# In article PMC5607274, “An iterative compound screening contest method for identifying target protein inhibitors using the tyrosine-protein kinase Yes” (Scientific Reports, 2017):
# Target: T1, human recombinant Yes [a.a. 2–543 (end)] (Homo sapiens, UniProt P07947)
# T1 construct: human recombinant Yes [a.a; 2–543 (end)]; purchased BPS Bioscience 40488
# Assay: ADP-Glo kinase assay, inhibition rates of Yes phosphorylation activity (first and second screening)
# Type: biochemical
# Conditions: first screening; mean of n = 4 wells; 10 μmol L−1 compound
# Outline: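 Hits from a first pass were rescreened after re-dissolution from fresh powder. The first pass reported the mean inhibition rate of quadruplicate wells per compound. Activity was that of recombinant human Yes [a.a. 2–543] kinase, read out with the ADP-Glo ADP-detection method.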
# T1 sequence (P07947 2-543): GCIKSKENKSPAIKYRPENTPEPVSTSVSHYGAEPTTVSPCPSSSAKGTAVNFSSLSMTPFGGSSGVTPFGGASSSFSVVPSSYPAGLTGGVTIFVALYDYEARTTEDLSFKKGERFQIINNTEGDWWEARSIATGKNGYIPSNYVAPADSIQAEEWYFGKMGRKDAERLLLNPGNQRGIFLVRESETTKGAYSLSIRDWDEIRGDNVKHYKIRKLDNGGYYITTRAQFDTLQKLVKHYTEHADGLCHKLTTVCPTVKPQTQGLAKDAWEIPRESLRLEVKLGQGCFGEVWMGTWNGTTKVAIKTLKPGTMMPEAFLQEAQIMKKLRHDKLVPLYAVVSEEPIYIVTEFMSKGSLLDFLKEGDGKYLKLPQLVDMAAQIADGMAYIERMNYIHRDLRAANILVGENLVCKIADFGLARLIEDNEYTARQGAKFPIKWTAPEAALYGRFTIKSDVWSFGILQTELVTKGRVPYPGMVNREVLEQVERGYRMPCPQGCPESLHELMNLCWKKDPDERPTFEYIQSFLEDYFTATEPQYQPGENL
row,Structure (SMILES),First screening IR (inhibition rate)
1,CC(C)c1nc2n(n1)CC(NC(=O)Nc1cc(-c3ccccc3)ns1)CC2 (stereo not drawn) [Compound Z1327803154],17%
2,CS(=O)(=O)N(C(=O)c1ccc(OC(F)(F)F)cc1)C1CCC(O)CC1 (stereo not drawn) [Compound Z1328888966],2%
3,CC(Oc1ccc(N(C)C(N)=O)cc1)c1nnc(-c2cccc(Cl)c2)o1 (stereo not drawn) [Compound Z1329202056],-16%
4,CCCCNS(=O)(=O)C1=CCS(=O)(=O)C1 [Compound Z1342205464],9%
5,O=S1(=O)CC=C(S(=O)(=O)N2CCCC2)C1 [Compound Z1342206502],6%
6,Cc1cc(C)n(-c2cncc(NC(C)c3nnc4ccccn34)n2)n1 (stereo not drawn) [Compound Z1343207103],5%
7,c1nc(N2CCCC2c2ccsc2)c2[nH]cnc2n1 (stereo not drawn) [Compound Z1343239610],12%
8,Cc1ccccc1C1CCCN1c1ncnc2nc[nH]c12 (stereo not drawn) [Compound Z1343261311],42%
9,Cc1c(C(=O)Nc2cnn(C)c2)c(=O)[nH]c2ccccc12 [Compound Z1343740230],23%
10,CC(C)S(=O)(=O)CCS(=O)(=O)Cc1ccc(Cl)cc1 [Compound Z1347350562],-14%
11,CC(C)S(=O)(=O)CCS(=O)(=O)Cc1ccccc1 [Compound Z1347350572],2%
12,CC(C)S(=O)(=O)CCS(=O)(=O)C(C)c1ccc(F)cc1 (stereo not drawn) [Compound Z1347351122],12%
13,CC(C)S(=O)(=O)CCS(=O)(=O)CC1CCCCC1 [Compound Z1347351162],-3%
14,CC(C)S(=O)(=O)CCS(=O)(=O)c1cccc(Br)c1 [Compound Z1347351377],-2%
15,O=C(OCc1ccc(-n2ccnc2)nc1)c1ccc([N+](=O)[O-])cc1 [Compound Z1352068858],7%
16,CC1(C)CN(c2nc(-c3ccncc3)nc3c2CCC3)CC[S+]1[O-] (stereo not drawn) [Compound Z1396757600],8%
17,COC1(C)CC(N(C)C(=O)NC2CCCn3nc(C(C)C)nc32)C1(C)C (stereo not drawn) [Compound Z1396774495],-1%
18,CC1CN(c2nccnc2C#N)CCN1C(=O)c1cccc(OCc2ccc(F)cc2)c1 (stereo not drawn) [Compound Z1401935735],35%
19,CCNC(=O)CN(CC)S(=O)(=O)c1cnn(-c2ccc(F)cc2)c1C [Compound Z1403244361],2%
20,CCC(C)CS(=O)(=O)N1CCS(=O)(=O)C(C)(C)C1 (stereo not drawn) [Compound Z1403432995],11%
21,CN(C)c1nc2ccc(NC(=O)c3csc(-c4ccoc4)n3)cc2o1 [Compound Z1404550995],10%
22,Nc1ccnc(-c2cncs2)n1 [Compound Z1407063064],-14%
23,COc1cccc(-c2cc(-c3ccccc3)c3cc(Br)ccc3n2)c1 [Compound Z1409331244],-16%
24,CC(C)N(CC#N)S(=O)(=O)c1ccccc1S(C)(=O)=O [Compound Z1411146082],-35%
25,Cc1cc(=O)[nH]c(C(C)Sc2ncn(-c3ccccc3)n2)n1 (stereo not drawn) [Compound Z1415883225],34%

row,Structure (SMILES),First screening IR (inhibition rate)
1,CCCN(Cc1cccnc1OC)C1CCN(C(=O)c2ccccc2)CC1 [Compound Z1415907924],6%
2,Cc1nc(-c2ccc(C(=O)OCCCn3cccn3)cc2)n[nH]1 [Compound Z1417129003],10%
3,CNc1snc(C)c1C(=O)N1CCC(Oc2ccc(Cl)c(Cl)c2)C1 (stereo not drawn) [Compound Z1417711005],-7%
4,CN(C)c1ccc(-c2cncc(C(=O)NCC3CC=CCC3)c2)cc1 (stereo not drawn) [Compound Z1418841673],21%
5,CC(Sc1ncc(CO)n1C)c1cn(-c2ccccc2)nn1 (stereo not drawn) [Compound Z1419493384],-8%
6,COC(=O)Cn1ncc2c(N3CCCCC3CCC(C)C)ncnc21 (stereo not drawn) [Compound Z1419966801],1%
7,CCc1ccc(CNc2cccc(NC(=O)OCCOC)c2)o1 [Compound Z1420504830],-7%
8,CCn1nc(NCc2cn[nH]c2-c2ccc(C)o2)cc1C1CC1 [Compound Z1421828757],13%
9,O=C(Nc1cc(-c2cccc(F)c2F)[nH]n1)c1ccc2nncn2c1 [Compound Z1423687928],11%
10,c1ccc(-c2cn(Cc3nc(-c4cccs4)no3)nn2)cc1 [Compound Z1425793872],13%
11,Cc1ccc(CNC(C)(CO)c2cccc(C(F)(F)F)c2)nc1 (stereo not drawn) [Compound Z1426135114],10%
12,O=C(Nc1n[nH]c(-c2ccoc2)n1)c1cc(-c2ccc(F)cc2)on1 [Compound Z1426521974],4%
13,Cc1cc(NCc2cn3cccnc3n2)c(C(N)=O)cc1F [Compound Z1430011273],12%
14,Cc1cnn(-c2cccc(N3CCOC(c4ccc(F)cc4)C3)n2)c1 (stereo not drawn) [Compound Z1430532131],0%
15,CC(C)c1nncn1CCNC(=O)C(c1cc(Cl)cc(Cl)c1)N(C)C (stereo not drawn) [Compound Z1430823330],5%
16,O=C(c1cc(C2CC2)[nH]n1)N1CCC(=Cc2cc(Cl)ccc2Cl)CC1 [Compound Z1432870591],2%
17,Cn1nc(C2CCC2)cc1NC(=O)c1cc(Br)cnc1Cl [Compound Z1433129748],0%
18,Clc1ccc(C2=NN/C(=N/c3ccccn3)SC2)s1 [Compound Z1446648080],8%
19,NC(=O)c1cc(NC(=O)c2cccnc2Nc2cccc(F)c2)n[nH]1 [Compound Z1451063255],2%
20,CNC1CCN(C(=O)c2ccc3c(c2)ncn3C(C)C)C1.Cl.Cl (stereo not drawn) [Compound Z1455845707],13%
21,Cl.O=C(NCCC1CCCNC1)c1c(F)cccc1Br (stereo not drawn) [Compound Z1457134316],-2%
22,CN1CCN(C(=O)c2ccc(-c3cc(F)c(F)c(F)c3)cc2)C(CN)C1.Cl (stereo not drawn) [Compound Z1457890473],13%
23,Cc1ccn2c(CNc3cc(C(N)=O)cc(F)c3C)cnc2c1 [Compound Z1462541066],33%
24,Fc1cc(NCc2cn[nH]c2-c2cccnc2)ccc1-n1ccnc1 [Compound Z1462562385],10%

# Continued, values first:
row,First screening IR (inhibition rate),Structure (SMILES)
1,13%,CN(C)C(=O)Cc1ccccc1NCc1ccc(-n2ccnc2)cc1 [Compound Z1462566317]
2,57%,O=C(OCCc1cn[nH]c1)c1ncoc1-c1ccco1 [Compound Z1463415737]
3,-4%,Cc1nc(C2CCCN(C(=O)c3cncc(-c4ccc5c(c4)CCO5)c3)C2)n[nH]1 (stereo not drawn) [Compound Z1464424071]
4,0%,COC(=O)c1cnc(N2CCCCC2)cc1N1CCCCC1 [Compound Z1465442209]
5,-6%,N#CCCN(CCN1CCOCC1)Cc1cn[nH]c1-c1c(F)cccc1F [Compound Z1470747510]
6,-8%,CCN(C(=O)c1ccc2c(c1)CC(c1ccccc1)OC2=O)c1ncc[nH]1 (stereo not drawn) [Compound Z1474089033]
7,70%,COc1ccc2[nH]c(C)c(C(=O)NCC(C)(C)c3cccc(F)c3)c2c1 [Compound Z1482480186]
8,33%,CC1CCN(Cc2ncc(-c3cccc(Cl)c3)o2)CC1n1ccnc1 (stereo not drawn) [Compound Z1492998619]
9,13%,CC1c2cc(Cl)cc(Cl)c2CCN1C(=O)c1cnc2n1CCCC2 (stereo not drawn) [Compound Z1494913871]
10,1%,CC1CCN(C(=O)c2nc3ncc(Br)cn3n2)CC(C)C1 (stereo not drawn) [Compound Z1500127626]
11,-4%,CN(C)C(C)(C)CNC(=O)Cc1c[nH]c2cccc(Br)c12 [Compound Z1509620411]
12,5%,CC(C)c1cc(C(=O)N(C)C2CCCCC2N(C)C(=O)c2cc(C(C)C)[nH]n2)n[nH]1 (stereo not drawn) [Compound Z1511609753]
13,17%,Cc1nccn1-c1cncc(NCCOCCS(C)(=O)=O)n1 [Compound Z1513517715]
14,-4%,Cc1cnc(COC(=O)c2cc(-c3ccccn3)ccc2Cl)cn1 [Compound Z1514764424]
15,-3%,CC(=O)c1cccc(COC(=O)c2n[nH]c3c2CCCC3)c1 [Compound Z1515387931]
16,1%,NS(=O)(=O)C1CC=CCC1 (stereo not drawn) [Compound Z1517090453]
17,31%,Cc1c(/C=C2/C(=O)Nc3ccc(F)cc32)cnn1C [Compound Z1517268554]
18,-3%,COC(=O)Cn1ncc2c(N3CCCC34CCCCC4)ncnc21 [Compound Z1527076116]
19,38%,Cn1nc(Br)c2c(N3CCCC34CCCCC4)ncnc21 [Compound Z1527076521]
20,-4%,CC(NCc1ccc(CN2CCN(C)CC2)cc1)c1cccc(CO)c1 (stereo not drawn) [Compound Z1532484795]
21,-4%,CCn1ncc2c(C(=O)NCC(C)(O)C(F)(F)F)cc(-c3cccs3)nc21 (stereo not drawn) [Compound Z1535762010]
22,53%,Cc1nccn1-c1ccc(C(C)Nc2ncnc3nc(N)ccc23)cc1 (stereo not drawn) [Compound Z1537172697]
23,3%,Cc1cccc(NC2CCN(C(=O)c3c[nH]c4cccc(F)c34)CC2)n1 [Compound Z1538193381]
24,-14%,O=S1(=O)CCC(CNS(=O)(=O)c2c[nH]c3nccc(Cl)c23)C1 (stereo not drawn) [Compound Z1547285504]

# Same assay, conditions: second screening, dissolved from fresh powder; n = 4; 10 μmol L−1 compound
row,Second screening IR (inhibition rate),Structure (SMILES)
1,-26%,Cc1ccn2c(CNc3cc(C(N)=O)cc(F)c3C)cnc2c1 [Compound Z1462541066]
2,16%,Cc1c(/C=C2/C(=O)Nc3ccc(F)cc32)cnn1C [Compound Z1517268554]
